Measured values published in patent US20230106836A1, “METHOD OF USING BIOSURFACTANT-PRODUCING BACTERIA AGAINST FUNGAL AND BACTERIAL PATHOGENS” (THE ROYAL INSTITUTION FOR THE ADVANCEMENT OF …, priority 2020, published 2023).

Tests used:
[1] = system: Salmonella enterica serovars; test: Diffusion plate assay of TLC fractions, organic acids and bleach; format: cell-based; conditions: organic acids 1%, bleach 1.3%
Experimental: (§1) Bacterial cells were removed by centrifugation (5000×g at 4° C.) and the cell—free supernatant (CFS) was acidified to pH 2.0 with 2N HCL at 4° C. for 16 h resulting in a precipitate that was collected by centrifugation (5000×g for 10 min at 4° C.). The acid precipitate fraction (APF) was dissolved in water (100 mg/mL) and adjusted to pH 7.0 using 1N NaOH. The CFS sample and clean BHM culture medium were concentrated by freeze-drying for 48 h. All samples were stored at −80° C. until further use.
Separation of CFS and APF fractions was performed by thin layer chromatography (TLC). Acid-cleaned glass plates (20×20 cm) were coated with a thin layer of silica emulsion (160 grams of silica with 15% (w/v) calcium sulphate and with fluorescent indicator GF254 dissolved in 500 mL of double distilled water) purchased from Sigma-Aldrich and dried for 16-18 h at 22° C. Activation of silica plates was done by heating the TLC plates at 120° C. for 30 min prior to use. An amount of 100 mg of each of CFS and APF were dissolved in 400 μL of chloroform: methanol (2:1, v/v) and separated on activated TLC plates with chloroform: methanol: water (70:26:4) as the developing solvent system. Plates were observed under UV (λ=254 nm) and the retention factor (Rf) values were calculated as distance travelled by the samples over the distance travelled by solvent. […] Bands corresponding to the desired Rf values were scraped and collected for extraction. Bands of the same Rf value from different plates were pooled together and extracted twice with chloroform: methanol (v/v/; 2:1). The collected fractions were vacuum-concentrated for 4-6 h at −60° C. using a Speed Vac™ v78100 (Labconco Corp, Kansas City Mo., USA), re-dissolved in 50 μL of methanol and tested against target bacteria and fungi, as well as for biosurfactant activity. Methanol (50 μL) was used as a negative control.
(§2) The biosurfactant activity of the fractions was tested using the oil-spreading and the drop collapse methods, as described above. Fractions were also tested for their antimicrobial activities against a number of bacteria and fungi using the Burkholder diffusion plate method as noted above. Briefly, 10 μL of the dissolved fractions were spotted in the middle of the plates. Positive controls consisted of 10 μL of bleach and of each of the following organic acids: 1% (v/v) of acetic acid, formic acid, citric acid and lactic acid. […] Individual trials were performed in triplicate and the entire assay was repeated twice to confirm the findings.

Botrytis cinerea = test: Antimicrobial assay of TLC fractions against fungi; format: cell-based; conditions: strain F014, Botrytis cinerea; organic acids 1%, bleach 1.3%
Experimental: as §1
(§3) Separation of CFS and APF fractions was performed by thin layer chromatography (TLC). Acid-cleaned glass plates (20×20 cm) were coated with a thin layer of silica emulsion (160 grams of silica with 15% (w/v) calcium sulphate and with fluorescent indicator GF254 dissolved in 500 mL of double distilled water) purchased from Sigma-Aldrich and dried for 16-18 h at 22° C. Activation of silica plates was done by heating the TLC plates at 120° C. for 30 min prior to use. An amount of 100 mg of each of CFS and APF were dissolved in 400 μL of chloroform: methanol (2:1, v/v) and separated on activated TLC plates with chloroform: methanol: water (70:26:4) as the developing solvent system. Plates were observed under UV (λ=254 nm) and the retention factor (Rf) values were calculated as distance travelled by the samples over the distance travelled by solvent. Only APF separated fractions were used for bioactivity assays. Bands corresponding to the desired Rf values were scraped and collected for extraction. Bands of the same Rf value from different plates were pooled together and extracted twice with chloroform: methanol (v/v/; 2:1). The collected fractions were vacuum-concentrated for 4-6 h at −60° C. using a Speed Vac™ v78100 (Labconco Corp, Kansas City Mo., USA), re-dissolved in 50 μL of methanol and tested against target bacteria and fungi, as well as for biosurfactant activity. Methanol (50 μL) was used as a negative control.
as §2

Rhizoctonia solani = test: Antimicrobial assay of TLC fractions against fungi; format: cell-based; conditions: organic acids 1%, bleach 1.3%
Experimental: as §1, §3, §2

X. campestris = test: Diffusion plate assay of TLC fractions, organic acids and bleach; format: cell-based; conditions: strain B07.007, Xanthomonas campestris; organic acids 1%, bleach 1.3%
Experimental: as §1, §3, §2

E. coli = test: as above; format: cell-based, Escherichia coli; conditions: organic acids 1%, bleach 1.3%
Experimental: as §1, §3, §2

[2] = strain AG1-1A (ROS-2A), R. solani
[3] = strain AG3 (114), Rhizoctonia solani

| SMILES | Microbial activity (clearing zone), fractions, organic acids and bleach ([1]; strain MAE14, S. enterica Typhimurium) | Microbial activity (clearing zone), fractions, organic acids and bleach ([1]; strain MAE299, S. enterica Typhimurium) | Microbial activity (clearing zone), fractions, organic acids and bleach ([1]; strain MAE775, S. enterica Typhimurium) | Microbial activity (clearing zone), fractions, organic acids and bleach ([1]; strain PARC#5, S. enterica Agona) | Microbial activity (clearing zone), fractions, organic acids and bleach ([1]; strain SCS2, S. enterica I: Rough-O: e, h: e, n) | Microbial activity (clearing zone), fractions, organic acids and bleach ([1]; strain SL1, S. enterica Newport) | Microbial activity (clearing zone), fractions, organic acids and bleach ([1]; strain SL2, S. enterica Hartford) | Microbial activity (clearing zone), fractions, organic acids and bleach ([1]; strain UMR1, Salmonella enterica Typhimurium) | Microbial activity (clearing zone), fractions, organic acids and bleach (Botrytis cinerea) | Microbial activity (clearing zone), fractions, organic acids and bleach (Rhizoctonia solani; [2]) | Microbial activity (clearing zone), fractions, organic acids and bleach (Rhizoctonia solani; [3]) | Microbial activity (clearing zone), fractions, organic acids and bleach (X. campestris) | Microbial activity (clearing zone), fractions, organic acids and bleach (E. coli; strain E3-6, Escherichia coli) | Microbial activity (clearing zone), fractions, organic acids and bleach (E. coli; strain E10-6, E. coli) | Microbial activity (clearing zone), fractions, organic acids and bleach (E. coli; strain E14-6, E. coli) | Microbial activity (clearing zone), fractions, organic acids and bleach (E. coli; strain E15-6, E. coli) |
| --- | --- | --- | --- | --- | --- | --- | --- | --- | --- | --- | --- | --- | --- | --- | --- | --- |
| CC(=O)O [AA] | ++ ((++) clearing zone of 4 mm) | ++ ((++) clearing zone of 4 mm) | +++ (clearing zone of 5 mm (+++)) | ++ ((++) clearing zone of 4 mm) | ++ ((++) clearing zone of 4 mm) | ++ ((++) clearing zone of 4 mm) | ++ ((++) clearing zone of 4 mm) | ++ ((++) clearing zone of 4 mm) | ++ ((++) clearing zone of 4 mm) | ++ ((++) clearing zone of 4 mm) | ++ ((++) clearing zone of 4 mm) | +++ (clearing zone of 5 mm (+++)) | ++ ((++) clearing zone of 4 mm) | ++ ((++) clearing zone of 4 mm) | ++ ((++) clearing zone of 4 mm) | ++ ((++) clearing zone of 4 mm) |
| O=C(O)CC(O)(CC(=O)O)C(=O)O [CA] |  |  |  |  |  |  |  |  | + ((+) clearing zone of 3 mm) | + ((+) clearing zone of 3 mm) | + ((+) clearing zone of 3 mm) | ++ ((++) clearing zone of 4 mm) | + ((+) clearing zone of 3 mm) | + ((+) clearing zone of 3 mm) | + ((+) clearing zone of 3 mm) | + ((+) clearing zone of 3 mm) |
| O=CO [FA] |  |  |  |  |  |  |  |  | +++ (clearing zone of 5 mm (+++)) | +++ (clearing zone of 5 mm (+++)) | +++ (clearing zone of 5 mm (+++)) | +++ (clearing zone of 5 mm (+++)) | +++ (clearing zone of 5 mm (+++)) | +++ (clearing zone of 5 mm (+++)) | +++ (clearing zone of 5 mm (+++)) | +++ (clearing zone of 5 mm (+++)) |
| CC(O)C(=O)O (stereo not shown) [LA] |  |  |  |  |  |  |  |  | + ((+) clearing zone of 3 mm) | + ((+) clearing zone of 3 mm) | + ((+) clearing zone of 3 mm) | ++ ((++) clearing zone of 4 mm) | + ((+) clearing zone of 3 mm) | + ((+) clearing zone of 3 mm) | + ((+) clearing zone of 3 mm) | + ((+) clearing zone of 3 mm) |
